Measured values taken from patent publication US4395417A, “Antihyperlipidemic compositions” (Research Corporation, priority 1980, dated 1983).
Where two headings read alike, the source gives them in different places.

Key:
[1] = biological target: T1, Acetyl-CoA Carboxylase (Mus musculus, UniProt Q5SWU9); assay: In vitro acetyl coenzyme A carboxylase activity (method of Greenspan and Lowenstein); format: biochemical; conditions: Table 2, N = 6, x ± S.D., control 32,010 dpm/gm wet tissue/30 min.
T1 construct: 32,010 dpm/gm wet tissue/30 min; from tissue

[2] = biological target: T2, Acetyl-CoA Synthetase (Mus musculus, UniProt Q9QXG4); assay: In vitro acetyl coenzyme A synthetase activity (method of Goodridge); format: biochemical, mice; conditions: for Acetyl-CoA Synthetase: Table 2, N = 6, x ± S.D., control 28.5 mg acetyl CoA formed/gm wet tissue/30 min.; for in vitro AcCoA synthetase: Table 3, N = 6, control 10.8 mg/g wet tissue
T2 construct: gm wet tissue/30 min; from tissue
T2 sequence (Q9QXG4 whole entry): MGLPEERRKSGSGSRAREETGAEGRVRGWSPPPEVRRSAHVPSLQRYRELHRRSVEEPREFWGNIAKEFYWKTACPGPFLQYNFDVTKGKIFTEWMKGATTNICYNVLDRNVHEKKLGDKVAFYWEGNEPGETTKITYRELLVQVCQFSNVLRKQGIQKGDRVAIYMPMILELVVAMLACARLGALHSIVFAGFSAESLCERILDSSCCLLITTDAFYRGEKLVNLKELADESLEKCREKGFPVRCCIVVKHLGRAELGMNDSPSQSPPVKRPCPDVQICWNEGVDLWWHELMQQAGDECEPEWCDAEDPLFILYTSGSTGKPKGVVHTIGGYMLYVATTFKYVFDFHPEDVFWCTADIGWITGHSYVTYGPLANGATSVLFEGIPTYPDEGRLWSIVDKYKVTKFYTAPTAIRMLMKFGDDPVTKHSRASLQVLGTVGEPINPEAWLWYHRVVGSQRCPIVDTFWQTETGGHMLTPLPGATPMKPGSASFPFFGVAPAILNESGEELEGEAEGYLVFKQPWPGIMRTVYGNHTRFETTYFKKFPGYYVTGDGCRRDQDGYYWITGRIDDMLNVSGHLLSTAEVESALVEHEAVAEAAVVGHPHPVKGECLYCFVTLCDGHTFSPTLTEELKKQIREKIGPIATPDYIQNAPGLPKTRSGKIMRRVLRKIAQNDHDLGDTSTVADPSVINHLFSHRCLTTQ

[3] = biological target: T3, Fatty Acid Synthetase (Mus musculus, UniProt P19096); assay: In vitro effect on fatty acid synthetase; format: biochemical; conditions: Table 2, N = 6, x ± S.D.
T3 construct: gm wet tissue/30 min; from tissue
T3 sequence (P19096 whole entry): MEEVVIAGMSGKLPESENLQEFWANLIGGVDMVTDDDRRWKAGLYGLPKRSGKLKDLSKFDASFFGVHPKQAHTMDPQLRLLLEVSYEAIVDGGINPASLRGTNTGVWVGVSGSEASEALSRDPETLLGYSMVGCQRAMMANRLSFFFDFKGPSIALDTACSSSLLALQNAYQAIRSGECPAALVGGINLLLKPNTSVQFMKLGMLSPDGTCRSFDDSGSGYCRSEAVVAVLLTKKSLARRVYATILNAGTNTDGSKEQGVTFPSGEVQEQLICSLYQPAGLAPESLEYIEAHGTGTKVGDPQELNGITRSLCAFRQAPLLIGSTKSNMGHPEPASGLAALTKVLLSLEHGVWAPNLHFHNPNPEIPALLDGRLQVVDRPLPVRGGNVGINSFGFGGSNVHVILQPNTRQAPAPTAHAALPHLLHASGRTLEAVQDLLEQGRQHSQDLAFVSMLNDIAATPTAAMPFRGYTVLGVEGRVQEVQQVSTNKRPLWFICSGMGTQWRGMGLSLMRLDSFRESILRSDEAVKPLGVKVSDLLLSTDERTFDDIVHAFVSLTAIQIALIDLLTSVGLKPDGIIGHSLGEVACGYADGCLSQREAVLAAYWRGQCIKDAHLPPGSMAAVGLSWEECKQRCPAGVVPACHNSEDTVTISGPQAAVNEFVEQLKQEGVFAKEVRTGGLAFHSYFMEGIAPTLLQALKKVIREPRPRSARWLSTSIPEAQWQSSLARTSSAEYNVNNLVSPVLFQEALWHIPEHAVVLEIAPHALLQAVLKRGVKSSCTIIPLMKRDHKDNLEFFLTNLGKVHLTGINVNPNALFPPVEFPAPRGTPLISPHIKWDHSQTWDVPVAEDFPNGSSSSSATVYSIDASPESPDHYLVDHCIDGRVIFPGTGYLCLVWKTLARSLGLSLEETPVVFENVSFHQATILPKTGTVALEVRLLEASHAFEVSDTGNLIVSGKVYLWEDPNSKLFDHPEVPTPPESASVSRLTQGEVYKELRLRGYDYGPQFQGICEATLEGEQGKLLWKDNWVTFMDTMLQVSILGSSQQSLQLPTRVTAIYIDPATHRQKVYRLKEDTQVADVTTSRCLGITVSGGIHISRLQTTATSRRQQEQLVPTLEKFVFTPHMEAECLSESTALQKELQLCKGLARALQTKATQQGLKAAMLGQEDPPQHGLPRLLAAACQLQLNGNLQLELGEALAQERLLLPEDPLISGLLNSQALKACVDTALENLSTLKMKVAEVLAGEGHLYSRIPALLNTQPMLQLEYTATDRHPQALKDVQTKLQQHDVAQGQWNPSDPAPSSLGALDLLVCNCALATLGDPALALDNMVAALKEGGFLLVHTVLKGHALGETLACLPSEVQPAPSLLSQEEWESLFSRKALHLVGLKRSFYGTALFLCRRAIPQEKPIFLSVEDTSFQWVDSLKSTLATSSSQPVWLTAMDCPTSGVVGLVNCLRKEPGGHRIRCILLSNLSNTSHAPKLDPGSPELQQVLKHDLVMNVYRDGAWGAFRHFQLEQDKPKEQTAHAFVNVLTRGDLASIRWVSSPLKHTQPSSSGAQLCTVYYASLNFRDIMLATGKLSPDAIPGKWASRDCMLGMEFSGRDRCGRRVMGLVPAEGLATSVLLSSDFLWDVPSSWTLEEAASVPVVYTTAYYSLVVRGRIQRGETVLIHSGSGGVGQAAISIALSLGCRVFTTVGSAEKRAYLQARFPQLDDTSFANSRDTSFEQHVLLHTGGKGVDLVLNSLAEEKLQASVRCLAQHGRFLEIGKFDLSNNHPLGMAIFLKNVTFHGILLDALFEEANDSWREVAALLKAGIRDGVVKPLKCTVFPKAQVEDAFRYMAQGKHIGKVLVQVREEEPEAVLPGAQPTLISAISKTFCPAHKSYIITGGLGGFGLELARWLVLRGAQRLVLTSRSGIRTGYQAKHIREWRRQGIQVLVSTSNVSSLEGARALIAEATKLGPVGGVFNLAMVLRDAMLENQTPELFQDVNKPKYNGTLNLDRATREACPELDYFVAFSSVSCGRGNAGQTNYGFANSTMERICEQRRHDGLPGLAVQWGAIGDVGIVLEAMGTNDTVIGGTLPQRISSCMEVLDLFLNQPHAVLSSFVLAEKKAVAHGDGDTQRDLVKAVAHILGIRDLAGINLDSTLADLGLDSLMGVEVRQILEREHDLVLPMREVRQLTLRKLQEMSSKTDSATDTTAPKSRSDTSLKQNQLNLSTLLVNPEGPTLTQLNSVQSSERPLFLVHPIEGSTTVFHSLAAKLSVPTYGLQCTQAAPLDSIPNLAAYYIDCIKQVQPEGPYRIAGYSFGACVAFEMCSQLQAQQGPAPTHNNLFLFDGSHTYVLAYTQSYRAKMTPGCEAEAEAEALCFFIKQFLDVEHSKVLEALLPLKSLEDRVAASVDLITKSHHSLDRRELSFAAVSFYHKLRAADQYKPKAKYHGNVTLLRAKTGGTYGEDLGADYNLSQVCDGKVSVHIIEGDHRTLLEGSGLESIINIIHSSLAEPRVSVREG

[4] = tested on: serum triglyceride; assay: Serum triglyceride levels of male mice (Hycel commercial kits); format: in vivo, male CF1 mice; conditions: Mus musculus, ip, 336 h
Description: (§1) For hypolipidemic activity, the compounds were tested at 20 mg/kg/day administered I.P. to male CF1 mice (~30 g). On days 9 and 16 blood was collected by tail-vein bleeding. Serum cholesterol was determined by the Liebermann-Burchard reaction. Serum triglyceride levels were determined using the Hycel commercial kits on a separate group of mice, which were bled on day 14.

[5] = biological target: T4, Citrate Lyase (Mus musculus, UniProt Q91V92); assay: In vitro effect on citrate lyase; format: biochemical; conditions: Table 2, N = 6, x ± S.D., control 30.5 mg of citrate hydrolyzed/gm wet tissue/30 min.
T4 construct: 30.5 mg of citrate hydrolyzed/gm wet tissue/30 min; from tissue
T4 sequence (Q91V92 1-1091): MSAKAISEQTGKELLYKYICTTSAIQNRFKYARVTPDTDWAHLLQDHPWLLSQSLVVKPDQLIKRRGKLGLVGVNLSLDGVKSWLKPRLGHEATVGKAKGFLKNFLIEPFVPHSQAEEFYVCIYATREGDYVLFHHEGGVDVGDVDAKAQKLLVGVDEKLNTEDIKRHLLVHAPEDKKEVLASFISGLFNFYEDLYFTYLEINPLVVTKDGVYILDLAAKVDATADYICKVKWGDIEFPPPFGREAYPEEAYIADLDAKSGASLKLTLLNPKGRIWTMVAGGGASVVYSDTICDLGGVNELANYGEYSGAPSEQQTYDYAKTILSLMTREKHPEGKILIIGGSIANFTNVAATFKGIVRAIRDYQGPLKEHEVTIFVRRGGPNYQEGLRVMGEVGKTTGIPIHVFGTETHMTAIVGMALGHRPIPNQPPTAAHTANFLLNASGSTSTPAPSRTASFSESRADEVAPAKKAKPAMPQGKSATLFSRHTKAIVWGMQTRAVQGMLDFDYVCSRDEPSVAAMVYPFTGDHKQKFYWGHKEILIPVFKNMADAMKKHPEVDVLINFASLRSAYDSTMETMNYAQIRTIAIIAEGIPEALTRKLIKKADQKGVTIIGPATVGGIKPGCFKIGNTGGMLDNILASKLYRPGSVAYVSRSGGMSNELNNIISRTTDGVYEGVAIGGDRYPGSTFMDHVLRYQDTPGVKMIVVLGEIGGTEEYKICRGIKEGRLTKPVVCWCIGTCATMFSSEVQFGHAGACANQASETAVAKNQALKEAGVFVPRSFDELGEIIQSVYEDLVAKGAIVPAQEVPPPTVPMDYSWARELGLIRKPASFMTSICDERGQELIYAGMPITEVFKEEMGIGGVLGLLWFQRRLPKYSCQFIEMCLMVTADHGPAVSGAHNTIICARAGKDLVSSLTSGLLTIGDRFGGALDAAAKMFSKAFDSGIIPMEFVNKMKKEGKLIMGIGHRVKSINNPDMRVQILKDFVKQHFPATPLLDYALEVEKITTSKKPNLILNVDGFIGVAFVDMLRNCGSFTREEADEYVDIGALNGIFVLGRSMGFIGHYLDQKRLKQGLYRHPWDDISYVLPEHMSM

[6] = tested on: serum cholesterol; assay: Serum cholesterol of male CF1 mice (Liebermann-Burchard reaction); format: in vivo; conditions: Mus musculus, ip
Description: as §1

[7] = Table 1, 20 mg/kg/day I.P., male mice, N = 6, 14th day, control value 137 mg %, read-out: Serum Triglyceride, 14th day
[8] = 216 h, Table 1, 20 mg/kg/day I.P., male CF1 mice, N = 6, 9th day, control value 118 mg %, read-out: Serum Cholesterol, 9th day
[9] = 384 h, Table 1, 20 mg/kg/day I.P., male CF1 mice, N = 6, 16th day, control value 122 mg %, read-out: Serum Cholesterol, 16th day
[10] = Table 3, mice, N = 6, control 138 mg %, read-out: serum triglycerides
[11] = 216 h, Table 3, mice, N = 6, 9th day, control 115 mg %, read-out: serum cholesterol, 9th day
[12] = 384 h, Table 3, mice, N = 6, 16th day, control 118 mg %, read-out: serum cholesterol, 16th day

SMILES	Acetyl-CoA Carboxylase [1] [% Control]	Acetyl-CoA Synthetase [2] [% Control]	Fatty Acid Synthetase [3] [% Control]	Citrate Lyase [5] [% Control]	in vitro AcCoA synthetase [2] [% Control]	response vs control in vivo at 20 mg/kg/day [4, 7] [%]	response vs control in vivo at 20 mg/kg/day [6, 8] [%]	response vs control in vivo at 20 mg/kg/day [6, 9] [%]	response vs control in vivo at 20 mg/kg/day [4, 10] [%]	response vs control in vivo at 20 mg/kg/day [6, 11] [%]	response vs control in vivo at 20 mg/kg/day [6, 12] [%]
O=C1NC(=O)c2cccc3cccc1c23 [1,8-Naphthalimide]	106 ± 6	63 ± 9	86 ± 8	66 ± 6		87 ± 12	81 ± 6	61 ± 7			
CC(=O)CCN1C(=O)c2cccc3cccc(c23)C1=O [1-N--(1,8-Naphthalimido)butan-3-one]	59 ± 8	88 ± 5	103 ± 4	60 ± 5		54 ± 15	94 ± 12	86 ± 9			
CC(=O)CCN1C(=O)c2ccccc2S1(=O)=O [1-N--(o-Benzosulfimido)butan-3-one]	12 ± 3	74 ± 9	104 ± 7	47 ± 8		51 ± 7	60 ± 8	62 ± 6			
CC(=O)CCN1C(=O)c2ccccc2C1=O [1-N--Phthalimidobutan-3-one]	17 ± 3	53 ± 12	109 ± 7	34 ± 4	53 ± 12	58 ± 7	67 ± 11	63 ± 7	58 ± 7	67 ± 11	63 ± 7
CC(=O)CCN1C(=O)CCC1=O [1-N--Succinimidobutan-3-one]	100 ± 5	58 ± 6	81 ± 7	38 ± 7		79 ± 15	90 ± 9	88 ± 7			
O=C(O)CN1C(=O)c2ccccc2C1=O [2-N--phthalimidoacetic acid]					72 ± 12				72 ± 9	76 ± 7	68 ± 7
O=C(O)CCCN1C(=O)c2ccccc2C1=O [4-N--phthalimidobutyric acid]					64 ± 12				59 ± 14	80 ± 7	68 ± 6
CCN1C(=O)c2ccccc2C1=O [N--ethylphthalimide]					82 ± 5				87 ± 5	83 ± 4	76 ± 2
CN1C(=O)c2ccccc2C1=O [N--methylphthalimide]					66 ± 12				68 ± 8	74 ± 4	74 ± 8
CC(=O)OCCN1C(=O)c2ccccc2C1=O [N--phthalimidoethyl acetate]					81 ± 6				82 ± 7	93 ± 13	95 ± 1
CC(=O)OCN1C(=O)c2ccccc2C1=O [N--phthalimidomethyl acetate]					62 ± 10				57 ± 25	61 ± 9	62 ± 4
CC(=O)OCCCN1C(=O)c2ccccc2C1=O [N--phthalimidopropan-1-ol acetate]					84 ± 2				89 ± 9	102 ± 4	66 ± 2
O=C1NC(=O)c2ccccc21.[K] [potassium phthalimide]					78 ± 6				88 ± 4	63 ± 6	78 ± 3

More lines, main results first:

Acetyl-CoA Carboxylase [1] [% Control]	Acetyl-CoA Synthetase [2] [% Control]	Fatty Acid Synthetase [3] [% Control]	Citrate Lyase [5] [% Control]	in vitro AcCoA synthetase [2] [% Control]	SMILES	response vs control in vivo at 20 mg/kg/day [4, 7] [%]	response vs control in vivo at 20 mg/kg/day [6, 8] [%]	response vs control in vivo at 20 mg/kg/day [6, 9] [%]	response vs control in vivo at 20 mg/kg/day [4, 10] [%]	response vs control in vivo at 20 mg/kg/day [6, 11] [%]	response vs control in vivo at 20 mg/kg/day [6, 12] [%]
				85 ± 3	CC(=O)CCCCCN1C(=O)c2ccccc2C1=O [1-N--phthalimidoheptan-6-one]				88 ± 5	71 ± 6	75 ± 12
				68 ± 6	CC(=O)CCCCN1C(=O)c2ccccc2C1=O [1-N--phthalimidohexan-5-one]				77 ± 5	65 ± 9	65 ± 7
				62 ± 3	CC(=O)CCCN1C(=O)c2ccccc2C1=O [1-N--phthalimidopentan-4-one]				59 ± 13	71 ± 6	63 ± 5
				76 ± 8	O=C(O)CCCCN1C(=O)c2ccccc2C1=O [5-N--phthalimidovaleric]				54 ± 5	83 ± 9	77 ± 4
				59 ± 9	O=C(O)CCCCCN1C(=O)c2ccccc2C1=O [6-N--phthalimidocaproic acid]				51 ± 12	81 ± 6	67 ± 3
				71 ± 5	CCCCCCCN1C(=O)c2ccccc2C1=O [N--n-heptylphthalimide]				84 ± 6	99 ± 7	72 ± 4
				71 ± 12	CCCCCCN1C(=O)c2ccccc2C1=O [N--n-hexylphthalimide]				84 ± 8	96 ± 5	66 ± 4
				76 ± 7	CCCCCCCCN1C(=O)c2ccccc2C1=O [N--n-octylphthalimide]				77 ± 4	101 ± 7	82 ± 3
				68 ± 6	CCCCCN1C(=O)c2ccccc2C1=O [N--n-pentylphthalimide]				75 ± 16	76 ± 5	58 ± 3
				67 ± 3	CCCN1C(=O)c2ccccc2C1=O [N--n-propylphthalimide]				81 ± 9	96 ± 4	74 ± 5
				83 ± 2	CC(=O)OCCCCN1C(=O)c2ccccc2C1=O [N--phthalimidobutan-1-ol acetate]				88 ± 7	93 ± 9	66 ± 5
